Test results as given in ChEMBL document CHEMBL1158225, “Antiplatelet flavonoids from seeds of Psoralea corylifolia” (J Nat Prod, 1996).
The source made the active and inactive calls. The calls are words filed in the database; no cut-off is given here.

Key:
Type in all cases: functional, cell-based
Conditions in all cases: Oryctolagus cuniculus
[1] = Antiplatelet activity against rabbit platelet assessed as inhibition of collagen-induced platelet aggregation preincubated for 3 mins by turbidimetric method
[2] = (§1) Antiplatelet activity against rabbit platelet assessed as inhibition of platelet-activating factor-induced platelet aggregation preincubated for 3 mins by turbidimetric method
[3] = Antiplatelet activity against rabbit platelet assessed as inhibition of arachidonic acid-induced platelet aggregation preincubated for 3 mins by turbidimetric method
Platelet [4] = test: as §1
Platelet [5] = test: Antiplatelet activity against rabbit platelet assessed as inhibition of arachidonic acid-induced platelet aggregation at 300 uM preincubated for 3 mins by turbidimetric method
Platelet [6] = test: Antiplatelet activity against rabbit platelet assessed as inhibition of collagen-induced platelet aggregation at 300 uM preincubated for 3 mins by turbidimetric method
Platelet [7] = test: Antiplatelet activity against rabbit platelet assessed as inhibition of platelet-activating factor-induced platelet aggregation at 300 uM preincubated for 3 mins by turbidimetric method

SMILES: CC(=O)Oc1ccccc1C(=O)O [ASPIRIN]
- IC50 [1]: 30.5 µM

SMILES: CCCCCCCCCCCCCCCCCCNC(=O)OCC(COP(=O)([O-])OCC[n+]1ccsc1)OC (configuration not stated)
- IC50 [2]: 1.1 µM

SMILES: CC(C)=CCc1cc(-c2coc3cc(O)ccc3c2=O)ccc1O [NEOBAVAISOFLAVONE]
- IC50 [3]: 7.8 µM
- IC50 [2]: 2.5 µM
- Activity (Platelet [4]): Dose-dependent effect
- IC50 [1]: 62.4 µM

SMILES: CC(C)=CCc1c(O)ccc(C(=O)/C=C/c2ccc(O)cc2)c1O [ISOBAVACHALCONE]
- IC50 [3]: 0.5 µM
- IC50 [2]: 41.6 µM
- IC50 [1]: 65.1 µM

SMILES: CC(C)=CCc1cc2c(cc1O)O[C@H](c1ccc(O)cc1)CC2=O
- Activity (Platelet [5]): inactive
- Activity (Platelet [6]): inactive
- Activity (Platelet [7]): inactive
